This test addresses T1, human Werner helicase (WRN-BV08, Uniprot Q14191, amino acids 517-1235 with L1074F point mutation) (Homo sapiens, UniProt Q14191, L1074F).
T1 construct: Uniprot Q14191, amino acids 517-1235 with L1074F point mutation; TEV-cleavable 8×His (C, cleaved yes); made in house; host or cells: Sf9 insect cells (baculovirus)
Description: WRN (BV08) ADP-Glo Assay. Type of test: biochemical. The note with it: 0.15 nM WRN, 5 μM ATP, 0.1 nM DNA duplex, 15 min preincubation, 60 min at 25° C., pH 7.5, 1% DMSO; read-out: ADP-Glo_hWRN_IC50. The procedure, abridged: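 0.15 nM WRN (aa 517-1235, L1074F, Sf9-expressed, tag cleaved) preincubated 15 min at 25 °C with compound, then 5 μM ATP and 0.1 nM DNA duplex added for 60 min. Buffer: 20 mM Bicine pH 7.5, 1 mM MgCl2, 10 mM KCl, 1 mM TCEP; 1% DMSO. ADP-Glo luminescence; IC50 by 4-parameter fit.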

T1 sequence (Q14191 with tags, fused parts or gaps L1074F limits assumed): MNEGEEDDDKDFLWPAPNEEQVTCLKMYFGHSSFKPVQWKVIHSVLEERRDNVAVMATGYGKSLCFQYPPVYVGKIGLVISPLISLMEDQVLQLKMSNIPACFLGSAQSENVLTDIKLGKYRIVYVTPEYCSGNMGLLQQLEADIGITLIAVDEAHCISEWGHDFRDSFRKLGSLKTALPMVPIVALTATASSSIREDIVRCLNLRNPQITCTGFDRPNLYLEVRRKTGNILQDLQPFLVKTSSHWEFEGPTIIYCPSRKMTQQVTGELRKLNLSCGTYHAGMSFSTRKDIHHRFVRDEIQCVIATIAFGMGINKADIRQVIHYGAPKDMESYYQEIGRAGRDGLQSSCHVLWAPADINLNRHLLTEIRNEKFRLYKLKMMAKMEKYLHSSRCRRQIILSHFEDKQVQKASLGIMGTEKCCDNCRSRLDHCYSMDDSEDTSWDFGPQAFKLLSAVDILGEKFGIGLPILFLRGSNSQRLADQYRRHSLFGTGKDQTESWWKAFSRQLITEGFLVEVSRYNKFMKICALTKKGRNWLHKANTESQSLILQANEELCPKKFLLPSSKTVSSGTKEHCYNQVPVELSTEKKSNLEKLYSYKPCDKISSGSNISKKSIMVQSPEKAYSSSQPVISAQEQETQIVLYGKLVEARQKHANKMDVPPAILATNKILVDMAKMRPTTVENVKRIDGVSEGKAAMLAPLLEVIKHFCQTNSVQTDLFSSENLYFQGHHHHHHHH

Turning to `O=C(c1ccc(-n2cccc2)cc1)N(Cc1ccccc1)C1C=CS(=O)(=O)C1` (stereo not drawn) [I-486, N-benzyl-N-(1,1-dioxo-2,3-dihydro-1lambda6-thiophen-3-yl)-4-(1H-pyrrol-1-yl)benzamide], the IC50 was > 50 µM.
The figure for `O=C(Cn1cc(-c2ccc(F)c(F)c2)cn1)N(Cc1nc(C2CC2)cs1)C1C=CS(=O)(=O)C1` (single isomer, unassigned) [I-5, N-((4-cyclopropylthiazol-2-yl)methyl)-2-(4-(3,4-difluorophenyl)-1H-pyrazol-1-yl)-N-(1,1-dioxido-2,3-dihydrothiophen-3-yl)acetamide] is < 0.5 µM; for `CC(C)(O)c1cc(CN(C(=O)Cn2nc(-c3cc(F)c(F)c(F)c3)cc2N)C2C=CS(=O)(=O)C2)ccn1` (single isomer, unassigned) [I-821] it is 0.5 to 5 µM; for `C#CCCCC(=O)N1CCN(c2ccc(CN(C(=O)Cc3ccc(-n4cccc4)cc3F)C3C=CS(=O)(=O)C3)cc2)CC1` (stereo not drawn) [I-213, N-(1,1-dioxo-2,3-dihydro-1lambda6-thiophen-3-yl)-2-[2-fluoro-4-(1H-pyrrol-1-yl)phenyl]-N-({4-[4-(hex-5-ynoyl)piperazin-1-yl]phenyl}methyl)acetamide] it is 0.5 to 5 µM.
As for `O=C(Cc1ccc(-n2cccc2)cc1)N(Cc1nc(C2CC2)cs1)[C@@H]1C=CS(=O)(=O)C1` [I-83, N-[(4-cyclopropyl-1,3-thiazol-2-yl)methyl]-N-[(3R)-1,1-dioxo-2,3-dihydro-1lambda6-thiophen-3-yl]-2-[4-(1H-pyrrol-1-yl)phenyl]acetamide], the IC50 was < 0.5 µM.
Turning to `COc1cc(CN(C(=O)C(OCC2CCN(S(C)(=O)=O)C2)c2ccc(-c3ccc(F)c(F)c3)cc2F)[C@@H]2C=CS(=O)(=O)C2)ccn1` (stereo partly drawn) [I-808, N-[(3R)-1,1-dioxo-2,3-dihydro-1lambda6-thiophen-3-yl]-2-[(1-methanesulfonylpyrrolidin-3-yl)methoxy]-N-[(2-methoxypyridin-4-yl)methyl]-2-{3,3′,4′-trifluoro-[1,1′-biphenyl]-4-yl}acetamide], the IC50 fell in the range of 0.5 to 5 µM.
In the case of `CC(C)(O)COc1cc(CN(C(=O)Cc2ccc(S(F)(F)(F)(F)F)cc2)C2C=CS(=O)(=O)C2)ccn1` (stereo not drawn) [I-768, N-(1,1-dioxo-2,3-dihydro-1lambda6-thiophen-3-yl)-N-{[2-(2-hydroxy-2-methylpropoxy)pyridin-4-yl]methyl}-2-[4-(pentafluoro-lambda6-sulfanyl)phenyl]acetamide], the IC50 is < 0.5 µM.
In the case of `O=C(Cc1cnn(C2CC2)c1)N(Cc1ccncc1)C1C=CS(=O)(=O)C1` (stereo not drawn) [I-582, 2-(1-cyclopropyl-1H-pyrazol-4-yl)-N-(1,1-dioxo-2,3-dihydro-1lambda6-thiophen-3-yl)-N-[(pyridin-4-yl)methyl]acetamide], the IC50 is > 50 µM.
The figure for `Cc1cccn1-c1ccc(CC(=O)N(Cc2ccnc(CC(C)(C)O)c2)C2C=CS(=O)(=O)C2)c(F)c1` (stereo not drawn) [I-139, N-(1,1-dioxo-2,3-dihydro-1lambda6-thiophen-3-yl)-2-[2-fluoro-4-(2-methyl-1H-pyrrol-1-yl)phenyl]-N-{[2-(2-hydroxy-2-methylpropyl)pyridin-4-yl]methyl}acetamide] is 0.5 to 5 µM; for `O=C(Cc1ccc(-n2cccc2)cc1)N(Cc1ccc[nH]c1=O)C1C=CS(=O)(=O)C1` (stereo not drawn) [I-369, N-(1,1-dioxo-2,3-dihydro-1lambda6-thiophen-3-yl)-N-[(2-oxo-1,2-dihydropyridin-3-yl)methyl]-2-[4-(1H-pyrrol-1-yl)phenyl]acetamide] it is 10 to 50 µM; for `O=C(C1CNc2cc(-c3ccc(F)cc3)ccc21)N(Cc1ccncc1)C1C=CS(=O)(=O)C1` (stereo not drawn) [I-124, N-(1,1-dioxo-2,3-dihydro-1lambda6-thiophen-3-yl)-6-(4-fluorophenyl)-N-[(pyridin-4-yl)methyl]-2,3-dihydro-1H-indole-3-carboxamide] it is 0.5 to 5 µM.
Turning to `O=C(Cc1ccc(-n2cccc2)cc1)N(c1ccccc1)C1C=CS(=O)(=O)C1` (stereo not drawn) [I-421, N-(1,1-dioxo-2,3-dihydro-1lambda6-thiophen-3-yl)-N-phenyl-2-[4-(1H-pyrrol-1-yl)phenyl]acetamide], the IC50 is > 50 µM.
In the case of `COc1cc(CN(C(=O)Cn2cc(-c3ccc(F)c(F)c3)cn2)[C@@H]2C=CS(=O)(=O)C2)ccn1` [I-598, 2-[4-(3,4-difluorophenyl)-1H-pyrazol-1-yl]-N-[(3R)-1,1-dioxo-2,3-dihydro-1lambda6-thiophen-3-yl]-N-[(2-methoxypyridin-4-yl)methyl]acetamide], the IC50 was < 0.5 µM.
Turning to `CC(C)(O)c1cc(CN(C(=O)Cc2ncc(-c3ccc(F)c(F)c3)cc2F)C2C=CS(=O)(=O)C2)ccn1` (stereo not drawn) [I-82, 2-[5-(3,4-difluorophenyl)-3-fluoropyridin-2-yl]-N-(1,1-dioxo-2,3-dihydro-1lambda6-thiophen-3-yl)-N-{[2-(2-hydroxypropan-2-yl)pyridin-4-yl]methyl}acetamide], the IC50 is < 0.5 µM.
Consider `COCCOC(C(=O)N(Cc1ccnc(C(C)(C)O)c1)[C@@H]1C=CS(=O)(=O)C1)c1ccc(-c2ccc(F)c(F)c2)cc1F` (stereo partly drawn) [I-30, N-[(3R)-1,1-dioxo-2,3-dihydro-1lambda6-thiophen-3-yl]-N-{[2-(2-hydroxypropan-2-yl)pyridin-4-yl]methyl}-2-(2-methoxyethoxy)-2-{3,3′,4′-trifluoro-[1,1′-biphenyl]-4-yl}acetamide], for which the IC50 is < 0.5 µM.
Turning to `COc1cc(CN(C(=O)Cn2ncc3cc(OC(F)(F)F)ccc32)[C@@H]2C=CS(=O)(=O)C2)ccn1` [I-721, N-[(3R)-1,1-dioxo-2,3-dihydro-1lambda6-thiophen-3-yl]-N-[(2-methoxypyridin-4-yl)methyl]-2-[5-(trifluoromethoxy)-1H-indazol-1-yl]acetamide], the IC50 was in the range of 0.5 to 5 µM.
As to `COC(C(=O)N(Cc1ccncc1)C1C=CS(=O)(=O)C1)c1ccc(-c2ccc(F)cc2)cc1` (single isomer, unassigned) [I-330, (2R*)-N-[(3R**)-1,1-dioxo-2,3-dihydro-1lambda6-thiophen-3-yl]-2-{4′-fluoro-[1,1′-biphenyl]-4-yl}-2-methoxy-N-[(pyridin-4-yl)methyl]acetamide], the IC50 lay within 10 to 50 µM.
`CC(C)(O)c1cc(CN(C(=O)Cc2ccc(-c3ccc(F)c(F)c3)cc2F)C2C=CS(=O)(=O)C2)ccn1` (stereo not drawn) [I-32, N-(1,1-dioxo-2,3-dihydro-1lambda6-thiophen-3-yl)-N-{[2-(2-hydroxypropan-2-yl)pyridin-4-yl]methyl}-2-{3,3′,4′-trifluoro-[1,1′-biphenyl]-4-yl}acetamide]: the IC50 is < 0.5 µM.
Turning to `CC(C)(O)c1cc(CN(C(=O)C(OCc2ccccc2)c2ccc(-c3ccc(F)c(F)c3)cc2F)[C@@H]2C=CS(=O)(=O)C2)ccn1` (single isomer, unassigned) [I-814], the IC50 was 0.5 to 5 µM.
On to `COc1cc(CN(C(=O)C(OC2CS(=O)(=O)C2)c2ccc(-c3ccc(F)c(F)c3)cc2F)[C@@H]2C=CS(=O)(=O)C2)ccn1` (stereo partly drawn) [I-833, 2-[(1,1-dioxo-1lambda6-thietan-3-yl)oxy]-N-[(3R)-1,1-dioxo-2,3-dihydro-1lambda6-thiophen-3-yl]-N-[(2-methoxypyridin-4-yl)methyl]-2-{3,3′,4′-trifluoro-[1,1′-biphenyl]-4-yl}acetamide], for which the IC50 is 10 to 50 µM.
With `COc1cc(CN(C(=O)Cc2ccc(S(F)(F)(F)(F)F)cc2)C2C=CS(=O)(=O)C2)ncn1` (stereo not drawn) [I-600, N-(1,1-dioxo-2,3-dihydro-1lambda6-thiophen-3-yl)-N-[(6-methoxypyrimidin-4-yl)methyl]-2-[4-(pentafluoro-lambda6-sulfanyl)phenyl]acetamide], the IC50 lay in the range of 0.5 to 5 µM.
As to `O=C(Cc1ccc(-n2cccc2)cc1)N(Cc1cccc2nccnc12)C1C=CS(=O)(=O)C1` (stereo not drawn) [I-316, N-(1,1-dioxo-2,3-dihydro-1lambda6-thiophen-3-yl)-2-[4-(1H-pyrrol-1-yl)phenyl]-N-[(quinoxalin-5-yl)methyl]acetamide], the IC50 lay within 10 to 50 µM.
As to `COc1cc(CN(C(=O)Cc2ccc(-c3ccc(F)cc3)cc2F)C2C=CS(=O)(=O)C2)ccn1` (stereo not drawn) [I-87, 2-{3,4′-difluoro-[1,1′-biphenyl]-4-yl}-N-(1,1-dioxo-2,3-dihydro-1lambda6-thiophen-3-yl)-N-[(2-methoxypyridin-4-yl)methyl]acetamide], the IC50 was in the range of 0.5 to 5 µM.
Turning to `O=C(c1ccc(CN(C(=O)Cc2ccc(-c3ccc(F)c(F)c3)cc2F)C2C=CS(=O)(=O)C2)cc1)N1CCOCC1` (stereo not drawn) [I-780, N-(1,1-dioxo-2,3-dihydro-1lambda6-thiophen-3-yl)-N-{[4-(morpholine-4-carbonyl)phenyl]methyl}-2-{3,3′,4′-trifluoro-[1,1′-biphenyl]-4-yl}acetamide], the IC50 lay in the range of 0.5 to 5 µM.
The figure for `COc1cc(CN(C(=O)C(C(=O)N(C)C)c2ccc(-c3ccc(F)cc3)cc2)C2C=CS(=O)(=O)C2)ccn1` (stereo not drawn) [I-55, N-(1,1-dioxo-2,3-dihydro-1lambda6-thiophen-3-yl)-2-{4′-fluoro-[1,1′-biphenyl]-4-yl}-N-[(2-methoxypyridin-4-yl)methyl]-N′,N′-dimethylpropanediamide] is < 0.5 µM; for `O=C(Cn1nnc(-c2ccccc2)n1)N(Cc1ccncc1)C1C=CS(=O)(=O)C1` (stereo not drawn) [I-442, N-(1,1-dioxo-2,3-dihydro-1lambda6-thiophen-3-yl)-2-(5-phenyl-2H-1,2,3,4-tetrazol-2-yl)-N-[(pyridin-4-yl)methyl]acetamide] it is > 50 µM.
Turning to `Cc1cccn1-c1ccc(CC(=O)N(Cc2nc3ccccc3s2)C2C=CS(=O)(=O)C2)c(F)c1` (stereo not drawn) [I-73, N-[(1,3-benzothiazol-2-yl)methyl]-N-(1,1-dioxo-2,3-dihydro-1lambda6-thiophen-3-yl)-2-[2-fluoro-4-(2-methyl-1H-pyrrol-1-yl)phenyl]acetamide], the IC50 is < 0.5 µM.
